According to article PMC5556071, “ATR inhibition facilitates targeting of leukemia dependence on convergent nucleotide biosynthetic pathways” (Nature Communications, 2017):
Several values for one entry are separate records, joined by “and”; a condition that tells them apart may be missing. Equal entries are not always repeated.

Tested on: CEM cells
Assay: Quantitative global proteomics (nLC-MS/MS), cells 12 h after release from G1 arrest
Type: cell-based, human
Design: key to RNR Level / dCK Level: ↓: partial decrease/inhibition; ↓↓↓: nearly complete inhibition; ↑: increase; ⟷: no change
Conditions: for Protein expression level normalized to control (NT): Eukaryotic translation initiation factor 6 (EIF6) / Protein expression level normalized to control (NT): Ribonucleoside-diphosphate reductase subunit M2 (RRM2) / Protein expression level normalized to control (NT): Translationally-controlled tumor protein (TPT1): 12 h following release from G1 arrest, independent analyses #1-#4; for RNR Level / dCK Level: summary Fig. 2g, CEM cells
Experimental: To investigate the molecular mechanisms underlying the metabolic consequences of ATR and dCK inhibition, global changes in protein expression were assessed in CEM cells using quantitative nano-LC tandem MS (nLC-MS/MS) (Fig. 2a). Chemical isotope coding following reductive dimethylation of peptide N-termini and lysine primary amines with differential stable isotopes (light:medium:heavy) was used to compare expression of experimental (VE-822, dCKi and VE-822 + dCKi) samples to controls (untreated, NT) by mixing equal proportions for triplex nLC-MS/MS quantitative analyses. The data set was filtered for proteins identified in all treatment groups in three independent experiments with coefficients of variation <20%. This yielded 1757 proteins with relative fold changes in treated vs. untreated cells ranging from 0.45 to 1.83. […] Protein levels of both RNR subunits, RRM1 and RRM2, as well as thymidylate synthase decreased by more than 20% following ATR inhibition (Fig. 2c). Changes in the expression of de novo enzymes observed in synchronous cells also occurred with ATR inhibition in asynchronous CEM cells (Fig. 2d and Supplementary Data 3), thereby arguing against the possibility of experimental artifacts introduced by Palbociclib-mediated cell cycle synchronization. The reduction in RRM2 levels induced by ATR inhibition was accompanied by an ~ 50% decrease in the phosphorylation of RRM2 on threonine 33 (pT33) (Fig. 2e), a phosphosite previously linked to the RRM2 stability. […]
Proteomic analyzes. CCRF-CEM cells were treated ± with a CDK4/6 inhibitor, PD-0332991 (Selleckchem) for 18 h to arrest at G1 phase. Cells were then washed twice with PBS and released in fresh media with treatment at a density of 1 x 10^6 cells/mL. Cells were collected at 12 h, washed twice with ice-cold PBS, and lysed by trituration using 1 mL per 5 x 10^7 cells of 0.5% sodium deoxycholate, 12 mM sodium lauryl sarcosine, and 50 mM triethylammonium bicarbonate, pH 8.0. Lysates were heated at 95 °C for 5 min and water bath sonicated at room temperature (RT) for 5 min. Bicinchoninic acid protein assay (Pierce) was performed to determine protein concentration. Disulfide bridges were reduced with 5 mM tris(2-carboxyethyl)phosphine (final concentration) at RT for 30 min with subsequent treatment with 10 mM iodoacetamide (final concentration) at RT in the dark for 30 min. Solutions were diluted 1:5 (v:v) with 50 mM triethylammonium bicarbonate. Proteins were cleaved with sequencing grade trypsin (Promega) at 1:100 (enzyme:protein) for 4 h at 37 °C followed by a second aliquot of trypsin 1:100 (enzyme:protein) overnight at 37 °C. Samples were acidified with 0.5% trifluoroacetic acid (final concentration), vortexed rapidly for 5 min, and centrifuged (16,000 x g for 5 min, RT) to pellet sodium deoxycholate. Supernatants were transferred to new microcentrifuge tubes and 20 µg of total peptide were desalted using C18 StageTips as previously described2. On-column dimethyl labeling using C18 StageTips was performed as previously described3. Briefly, StageTips were equilibrated with 20 μL of 250 mM 2-(N-morpholino)ethanesulfonic acid (MES) pH 5.5. Tryptic peptides were dimethyl labeled using 60 mM sodium cyanoborohydride, 0.4% formaldehyde, and 250 mM MES pH 5.5 for 10 min. Dimethyl labeled peptides were eluted from StageTips using 20 μL of 80% acetonitrile with 0.1% trifluoroacetic acid and lyophilized to dryness. Due to the nature of comparing 4 sample groups and being limited to 3 channels for stable isotope reductive amination labeling, two independent multiplexed experiments were run with each

SMILES	Protein expression level normalized to control (NT): Eukaryotic translation initiation factor 6 (EIF6) (listed as DI-82)	Protein expression level normalized to control (NT): Ribonucleoside-diphosphate reductase subunit M2 (RRM2) (listed as DI-82)	Protein expression level normalized to control (NT): Translationally-controlled tumor protein (TPT1) (listed as DI-82)	RNR Level	dCK Level	Protein expression level normalized to control (NT): Eukaryotic translation initiation factor 6 (EIF6)	Protein expression level normalized to control (NT): Ribonucleoside-diphosphate reductase subunit M2 (RRM2)	Protein expression level normalized to control (NT): Translationally-controlled tumor protein (TPT1)	decrease of RRM1 protein level (following ATR inhibition, 12 h)	decrease of RRM2 protein level (following ATR inhibition, 12 h)	decrease of thymidylate synthase protein level (following ATR inhibition, 12 h)
COc1ccc(-c2nc([C@@H](C)Sc3nc(N)cc(N)n3)c(C)s2)cc1OCCNS(C)(=O)=O [dCKi]	1.00 and 0.98 and 0.95 and 0.99	1.17 and 0.99 and 1.08 and 1.15	0.99 and 0.98 and 0.95	⟷	⟷	–	–	–	–	–	–
CNCc1ccc(-c2cc(-c3nc(-c4ccc(S(=O)(=O)C(C)C)cc4)cnc3N)on2)cc1 [VE-822]	–	–	–	↓	⟷	1.09 and 1.10 and 1.08	0.57 and 0.45 and 0.53	0.80 and 0.79 and 0.85	> 20%	> 20%	> 20%
